Test results taken from patent US9890400B2, “Method of production of 2,4-dihydroxybutyric acid” (ADISSEO FRANCE S.A.S., priority 2012, dated 2018).
Where a chain is given by its changes, count along the chain named.

Key:
malic enzyme = settings: Rognstad & Katz, 1979; cited from earlier work
[1] = biological target: T1, Metallosphaera sedula succinic semialdehyde reductase (Ms-SSR), wild type, SEQ ID No. 16 (Metallosphaera sedula, UniProt A4YGN0); assay: Malate semialdehyde reductase activity; assay type: biochemical; settings: NADH or NADPH, pH 7.5, 30° C., average of at least two independent experiments
T1 construct: full length 360 aa
T1 sequence (A4YGN0 1-360): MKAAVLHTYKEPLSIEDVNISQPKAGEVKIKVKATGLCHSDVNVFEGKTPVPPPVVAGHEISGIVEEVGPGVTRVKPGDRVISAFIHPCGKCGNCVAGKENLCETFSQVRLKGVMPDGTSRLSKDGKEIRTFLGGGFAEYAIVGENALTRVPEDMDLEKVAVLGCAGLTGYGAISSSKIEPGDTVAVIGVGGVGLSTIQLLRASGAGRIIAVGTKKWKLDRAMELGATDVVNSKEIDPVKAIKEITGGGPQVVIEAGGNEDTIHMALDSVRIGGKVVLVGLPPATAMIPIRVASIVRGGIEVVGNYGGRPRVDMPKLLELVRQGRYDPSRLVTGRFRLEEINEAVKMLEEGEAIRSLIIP
Description: To identify a suitable 2,4 DHB dehydrogenase, beta-hydroxyacid dehydrogenases from different biological sources were tested for their ability to reduce malate semialdehyde. […] The genes YPR1, 4hbdh, yqhD, and Ms-SSR were amplified using primers listed in Table 5 and cloned into vector pET28 (restriction enzymes see Table 5) yielding plasmids pET28-Sce-YPR1, pET28-Pgi-4-hbdh, pET28-Eco-yqhd and pET28-Mse-SSR, respectively. The proteins were expressed and purified as described in Example 1.
(§1) Test for Malate Semialdehyde Reductase Activity: (L)-Malate semialdehyde+NAD(P)H→(L)-2,4-dihydroxybutyric acid+NAD(P) Reaction scheme:
(§2) The assay mixture contained 200 mM Hepes (pH 7.5), 50 mM KCl, 5 mM MgCl2, 0.24 mM NADH or NADPH, and appropriate amounts of purified enzyme or cell extract. Reactions were started by adding 10 mM (L)-malate semialdehyde (malate semialdehyde was prepared freshly for each test, see Example 3). Enzymatic assays were carried out at 30° C. in 96-well flat bottomed microtiter plates in a final volume of 250 μL. The reactions were followed by the characteristic absorption of NAD(P)H at 340 nm (εNADPH=6.22 mM^−1 cm^−1) in a microplate reader (BioRad 680XR).

[2] = biological target: T2, Metallosphaera sedula succinic semialdehyde reductase (Ms-SSR) mutant H39R, SEQ ID No. 32 (Metallosphaera sedula, UniProt A4YGN0, H39R); assay: Malate semialdehyde reductase activity; assay type: biochemical; settings: NADH or NADPH, pH 7.5, 30° C., average of at least two independent experiments
T2 sequence (A4YGN0 1-360 H39R): T1 sequence (A4YGN0 1-360) with H39R
Description: as §1, §2
(§3) Site-directed mutagenesis was carried out using the oligonucleotide pairs listed in Table 6 and the pET28-Mse-SSR plasmid as the template. Point mutations to change the amino acid sequences were introduced by PCR (Phusion 1U, HF buffer 20% (v/v), dNTPs 2.5 mM, direct and reverse primers 1 μM each, template plasmid 200 ng, water). When possible, plasmids created by PCR contained new restriction sites (introduced using silent mutations) in addition to the functional mutation to facilitate identification of mutated clones. The PCR products were digested by DpnI at 37° C. for 2×2 h to remove template DNA, and transformed into NEB DH5-α competent E. coli cells (NEB). The mutated plasmids were identified by restriction site analysis and verified to carry the desired mutations by DNA sequencing.

[3] = biological target: T3, Metallosphaera sedula succinic semialdehyde reductase (Ms-SSR) mutant N43H, SEQ ID No. 34 (Metallosphaera sedula, UniProt A4YGN0, N43H); assay: Malate semialdehyde reductase activity; assay type: biochemical; settings: NADH or NADPH, pH 7.5, 30° C., average of at least two independent experiments
T3 sequence (A4YGN0 1-360 N43H): T1 sequence (A4YGN0 1-360) with N43H
Description: as §1, §2, §3

[4] = biological target: T4, Metallosphaera sedula succinic semialdehyde reductase (Ms-SSR) double mutant H39R N43H, SEQ ID No. 36 (Metallosphaera sedula, UniProt A4YGN0, H39R/N43H); assay: Malate semialdehyde reductase activity; assay type: biochemical; settings: NADH or NADPH, pH 7.5, 30° C., average of at least two independent experiments
T4 sequence (A4YGN0 1-360 H39R/N43H): T1 sequence (A4YGN0 1-360) with H39R, N43H
Description: as §1, §2, §3

O=C(O)[C@@H](O)CCO [2,4-DHB, 2,4-dihydroxybutyric acid]
inhibition of malic enzyme (malic enzyme): competitive inhibitor

O=CC[C@H](O)C(=O)O [malate semialdehyde, (L)-malate semialdehyde]
Maximum activity [1]: 4.9 μmol/(min * mgprot) | Maximum activity [2]: 1.7 μmol/(min * mgprot) | Maximum activity [3]: 4.3 μmol/(min * mgprot) | Maximum activity [4]: 4.7 μmol/(min * mgprot)
